Experimental findings from US20260274833A1 (NiKang Therapeutics, Inc., priority 2022, published 2026) are described below.

Where only a bound is given, the exact number is not on record here.

For the first assay, the target named is T1, CDK2 (Homo sapiens, UniProt P24941).
T1 construct: endogenous in cells; host or cells: OVCAR3 cells
Briefly: Phospho-RB measurement in OVCAR3 cells (HTRF phospho-RB cellular kit). Conditions: inhibition of RB phosphorylation at S807/811 (HTRF), 24 h compound treatment. It is filed as cell-based. The protocol:
Biological Example 1: Phospho-RB Measurement in OVCAR3 Cells
The ability of compounds of Formula (I) to inhibit CDK2 was determined in OVCAR3 cells by measuring inhibition of phosphorylation of RB protein at S780 and S807/811. Phosphorylation of RB protein at S807/811 were measured using HTRF phospho-RB cellular kits (Cat #64RBS807PEG) from Cisbio.
On Day 1, OVCAR3 cells were seeded into 96-well tissue-culture treated plates at 20,000 cells/well in 200 μL and incubated overnight at 37° C. in CO2 atmosphere. On Day 2, the cells were treated with test compounds at concentrations from 0.3 to 10,000 nM using HP D300 digital dispenser. Twenty-four hours after compound treatment, cell culture media was removed by flicking the plate and tapping the plate against clean paper towel. Immediately 30 μL 1× lysis buffer was supplemented from the kit and the plate was incubated at room temperature on shaker for 30 min. After homogenization by pipetting up and down, 8 μL cell lysate from 96-well cell culture plate was transferred to 384-well small volume white detection plate. 2 μL premixed detection solution was added and the plate was covered with sealer. To prepare the detection solution, d2 conjugated-phospho-RB antibody and Eu-cryptate conjugated phosphor-RB antibody were diluted into detection buffer following manufacturer's instruction.
Detection plates were incubated for 4 h at room temperature and read on ClarioStar (BMG Labtech) in TR-FRET mode ([…]). The TR-FRET ratio (665 nM/620 nM) was plotted against the compound concentration and normalized to DMSO controls. Half maximal inhibition concentration (IC50) values are calculated with a four-parameter logistic fit using GraphPad Prism (version 8; La Jolla, CA).
A general note: TR-FRET usually uses a lanthanide donor and a delayed reading to cut background.
On to `CC(=O)N1CCN(S(=O)(=O)Nc2cccc(-c3nc(C(C)(C)C)sc3-c3ccnc(NC4CCN(S(C)(=O)=O)CC4)n3)c2F)CC1` [Example 88, 4-acetyl-N-(3-(2-(tert-butyl)-5-(2-((1-(methylsulfonyl)piperidin-4-yl)amino)-pyrimidin-4-yl)thiazol-4-yl)-2-fluoro-phenyl)-piperazine-1-sulfonamide], for which the IC50 – broadly, the concentration needed to halve the response being measured – is above 10000 nM.

The assay is the same for the next values; noted with them: inhibition of RB phosphorylation at S807/811 (HTRF, TR-FRET ratio 665/620), 24 h compound treatment, 0.3 to 10,000 nM.
As to `CC(C)(C)c1nc(-c2cccc(NS(=O)(=O)N3CCc4cc(C#N)ccc43)c2F)c(-c2ccnc(NC3CCN(S(C)(=O)=O)CC3)n2)s1` [Example 92, N-(3-(2-(tert-butyl)-5-(2-((1-(methylsulfonyl)piperidin-4-yl)amino)-pyrimidin-4-yl)thiazol-4-yl)-2-fluorophenyl)-5-cyanoindoline-1-sulfonamide], the IC50 was found to be 305 nM.
Still for that read-out and setting: next, `CNCCOc1cccc2c1CN(S(=O)(=O)Nc1cccc(-c3nc(C(C)(C)C)sc3-c3ccnc(NC4CCN(S(C)(=O)=O)CC4)n3)c1F)C2` [Example 164, N-(3-(2-(tert-butyl)-5-(2-((1-(methylsulfonyl)-piperidin-4-yl)amino)-pyrimidin-4-yl)thiazol-4-yl)-2-fluoro-phenyl)-4-(2-(methylamino)-ethoxy)-isoindoline-2-sulfonamide]: 2670 nM; `COc1cccc2c1CN(S(=O)(=O)Nc1cccc(-c3nc(N4C5CCC4CN(C)C5)sc3-c3ccnc(NC4CC5(C4)CS(=O)(=O)C5)n3)c1F)C2` [Example 31, N-(3-(5-(2-((2,2-dioxido-2-thiaspiro-[3.3]-heptan-6-yl)amino)pyrimidin-4-yl)-2-(3-methyl-3,8-diazabicyclo [3.2.1]-octan-8-yl)-thiazol-4-yl)-2-fluoro-phenyl)-4-methoxy-isoindoline-2-sulfonamide]: 30.2 nM; `CC(C)(C)c1nc(-c2cccc(NS(=O)(=O)N3Cc4ccccc4C3)c2F)c(-c2ccnc(NC3CCN(S(=O)(=O)N4CCNCC4)CC3)n2)s1` [Example 113, N-(3-(2-(tert-butyl)-5-(2-((1-(piperazin-1-ylsulfonyl)piperidin-4-yl)amino)-pyrimidin-4-yl)thiazol-4-yl)-2-fluoro-phenyl)isoindoline-2-sulfonamide]: 120 nM.
The same measure, in the same setting: next, `CN(C)Cc1ccc2c(c1)N(S(=O)(=O)Nc1cccc(-c3nc(C(C)(C)C)sc3-c3ccnc(NC4CCN(S(C)(=O)=O)CC4)n3)c1F)CC2` [Example 142, N-(3-(2-(tert-butyl)-5-(2-((1-(methylsulfonyl)-piperidin-4-yl)amino)-pyrimidin-4-yl)thiazol-4-yl)-2-fluoro-phenyl)-6-((dimethylamino)-methyl)-indoline-1-sulfonamide]: 341 nM; `CC(O)c1cccc2c1CCN2S(=O)(=O)Nc1cccc(-c2nc(C(C)(C)C)sc2-c2ccnc(NC3CC4(C3)CS(=O)(=O)C4)n2)c1F` (stereo not shown) [Example 229, N-(3-(2-(tert-butyl)-5-(2-((2,2-dioxido-2-thiaspiro[3.3]heptan-6-yl)amino)-pyrimidin-4-yl)thiazol-4-yl)-2-fluoro-phenyl)-4-(1-hydroxyethyl)-indoline-1-sulfonamide]: 145 nM.
Same read-out and setting: next, `CC1c2ccccc2CN1S(=O)(=O)Nc1cccc(-c2nc(C(C)(C)C)sc2-c2ccnc(NC3CCN(S(C)(=O)=O)CC3)n2)c1F` (stereo not shown) [Example 109, N-(3-(2-(tert-butyl)-5-(2-((1-(methylsulfonyl)-piperidin-4-yl)amino)-pyrimidin-4-yl)thiazol-4-yl)-2-fluoro-phenyl)-1-methylisoindoline-2-sulfonamide]: 210 nM.
As to `O=S1(=O)CC2(CC(Nc3nccc(-c4sc(N5C6CCC5COC6)nc4-c4cccc(NS(=O)(=O)N5Cc6ccncc6C5)c4F)n3)C2)C1` [Example 212, N-(3-(2-(3-oxa-8-azabicyclo [3.2.1]octan-8-yl)-5-(2-((2,2-dioxido-2-thiaspiro-[3.3]heptan-6-yl)amino)pyrimidin-4-yl)thiazol-4-yl)-2-fluorophenyl)-1,3-dihydro-2H-pyrrolo [3,4-c]-pyridine-2-sulfonamide], the IC50 stood at 662 nM.
Regarding `CC(C)(C)c1nc(-c2cccc(NS(=O)(=O)N3Cc4cccnc4C3)c2F)c(-c2ccnc(NC3CCN(S(C)(=O)=O)CC3)n2)s1` [Example 95, N-(3-(2-(tert-butyl)-5-(2-((1-(methylsulfonyl)piperidin-4-yl)amino)-pyrimidin-4-yl)thiazol-4-yl)-2-fluoro-phenyl)-5,7-dihydro-6H-pyrrolo-[3,4-b]pyridine-6-sulfonamide], the IC50 came out at 610 nM.
For `CN(C)CCN(C)S(=O)(=O)N1CCC(Nc2nccc(-c3sc(C(C)(C)C)nc3-c3cccc(NS(=O)(=O)N4CCOc5ccccc5C4)c3F)n2)CC1` [Example 105, N-(3-(2-(tert-butyl)-5-(2-((1-(N-(2-(dimethyl-amino)ethyl)-N-methyl-sulfamoyl)piperidin-4-yl)amino)-pyrimidin-4-yl)thiazol-4-yl)-2-fluoro-phenyl)-2,3-dihydrobenzo [f][1,4]-oxazepine-4 (5H)-sulfonamide], the IC50 worked out at 215 nM.
In the case of `CC(C)(C)c1nc(-c2cccc(NS(=O)(=O)N3CCc4c(C#N)cccc43)c2F)c(-c2ccnc(NC3CC4(C3)CS(=O)(=O)C4)n2)s1` [Example 193, N-(3-(2-(tert-butyl)-5-(2-((2,2-dioxido-2-thiaspiro[3.3]heptan-6-yl)amino)-pyrimidin-4-yl)thiazol-4-yl)-2-fluoro-phenyl)-4-cyanoindoline-1-sulfonamide], the IC50 worked out at 125 nM.
On the same count and under the same terms, then `CN(C)Cc1cccc(Nc2nccc(-c3sc(C(C)(C)C)nc3-c3cccc(NS(=O)(=O)N4CCc5ccc(C#N)cc54)c3F)n2)c1` [Example 241, N-(3-(2-(tert-butyl)-5-(2-((3-((dimethylamino)-methyl)phenyl)-amino)pyrimidin-4-yl)thiazol-4-yl)-2-fluorophenyl)-6-cyanoindoline-1-sulfonamide], with 521 nM; and `O=S1(=O)CC2(CC(Nc3nccc(-c4sc(C56CC(C5)C6)nc4-c4cccc(NS(=O)(=O)N5CCc6ccc(Cl)cc65)c4F)n3)C2)C1` [Example 21, N-(3-(2-(bicyclo [1.1.1]pentan-1-yl)-5-(2-((2,2-dioxido-2-thiaspiro[3.3]heptan-6-yl)amino)-pyrimidin-4-yl)thiazol-4-yl)-2-fluorophenyl)-6-chloroindoline-1-sulfonamide], with 55.7 nM; and `CN(C)CCN(C)S(=O)(=O)N1CCC(Nc2nccc(-c3sc(C(C)(C)C)nc3-c3cccc(NS(=O)(=O)N4CCc5c(C#N)cccc54)c3F)n2)CC1` [Example 123, N-(3-(2-(tert-butyl)-5-(2-((1-(N-(2-(dimethylamino)ethyl)-N-methylsulfamoyl)-piperidin-4-yl)amino)-pyrimidin-4-yl)thiazol-4-yl)-2-fluoro-phenyl)-4-cyanoindoline-1-sulfonamide], with 75.2 nM.
The same measure, in the same setting: then `N#Cc1ccc2c(c1)N(S(=O)(=O)Nc1cccc(-c3nc(C45CC(C4)C5)sc3-c3ccnc(N[C@H]4C[C@@H]5CS(=O)(=O)C[C@@H]5C4)n3)c1F)CC2` [Example 59, N-(3-(2-(bicyclo [1.1.1]pentan-1-yl)-5-(2-(((3aR,5s,6aS)-2,2-dioxidohexahydro-1H-cyclopenta[c]thiophen-5-yl)amino)-pyrimidin-4-yl)thiazol-4-yl)-2-fluorophenyl)-6-cyanoindoline-1-sulfonamide], with 53.3 nM.
Same read-out and setting: then `CC(C)(C)c1nc(-c2cccc(NS(=O)(=O)N3Cc4cccc(OCCO)c4C3)c2F)c(-c2ccnc(NC3CCN(S(C)(=O)=O)CC3)n2)s1` [Example 237, N-(3-(2-(tert-butyl)-5-(2-((1-(methylsulfonyl)-piperidin-4-yl)amino)-pyrimidin-4-yl)thiazol-4-yl)-2-fluoro-phenyl)-4-(2-hydroxyethoxy)-isoindoline-2-sulfonamide], with 297 nM; and `CC(C)(C)c1nc(-c2cccc(NS(=O)(=O)N3Cc4cccc(Oc5ccccc5C#N)c4C3)c2F)c(-c2ccnc(NC3CC4(C3)CS(=O)(=O)C4)n2)s1` [Example 219, N-(3-(2-(tert-butyl)-5-(2-((2,2-dioxido-2-thiaspiro[3.3]heptan-6-yl)amino)-pyrimidin-4-yl)thiazol-4-yl)-2-fluorophenyl)-4-(2-cyanophenoxy)-isoindoline-2-sulfonamide], with 583 nM; and `CNCc1cccc2c1CN(S(=O)(=O)Nc1cccc(-c3nc(C(C)(C)C)sc3-c3ccnc(NC4CCN(S(C)(=O)=O)CC4)n3)c1F)C2` [Example 172, N-(3-(2-(tert-butyl)-5-(2-((1-(methylsulfonyl)-piperidin-4-yl)amino)-pyrimidin-4-yl)thiazol-4-yl)-2-fluoro-phenyl)-4-((methylamino)methyl)-isoindoline-2-sulfonamide], with 3170 nM.
